According to US20240083857A1, “2-Methyl-Quinazolines” (Bayer Pharma Aktiengesellschaft, priority 2017, published 2024):

How the values were obtained:
[1] = target: K-Ras^G12C : hSOS1 interaction (Homo sapiens, UniProt Q07889); experiment: Biochemical assay 1: K-Ras^G12C interaction assay with hSOS1 (HTRF); assay type: binding; conditions: for IC50: read-out: Assay 1 (KRAS-SOS Interaction) activity expressed as IC50
Method: Biochemical assay 1: K-Ras^G12C Interaction Assay with hSOS1
This assay quantifies the equilibrium interaction of human SOS1 with K-Ras^Gl2C. Detection of the interaction is achieved by measuring homogenous time-resolved fluorescence resonance energy transfer (HTRF) from antiGST-Europium (FRET donor) bound to GST-K-Ras^G12C to anti-6His-XL665 bound to His-tagged hSOS1 (FRET-acceptor).
The assay buffer contained 5 mM HEPES pH 7.4 (Applichem), 150 mM NaCl (Sigma), 10 mM EDTA (Promega), 1 mM DTT (Thermofisher), 0.05% BSA Fraction V, pH 7.0, (ICN Biomedicals), 0.0025% (v/v) Igepal (Sigma) and 100 mM KF (FLUKA).
Concentrations of protein batches used were optimized to be within the linear range of the HTRF signal. A Ras working solution was prepared in assay buffer containing typically 10 nM GST-hK-RasG12C and 2 nM antiGST-Eu(K) (Cisbio, France). A SOS working solution was prepared in assay buffer containing typically 20 nM His-hSOS1 and 10 nM anti-6His-XL665 (Cisbio, France). An inhibitor control solution was prepared in assay buffer containing 10 nM anti-6His-XL665 without hSOS1.
(§1) Fifty nl of a 100-fold concentrated solution of the test compound in DMSO were transferred into a black microtiter test plate (384 or 1536, Greiner Bio-One, Germany). For this, either a Hummingbird liquid handler (Digilab, MA, USA) or an Echo acoustic system (Labcyte, CA, USA) was used.
(§2) All steps of the assay were performed at 20° C. A volume of 2.5 μl of the Ras working solution was added to all wells of the test plate using a Multidrop dispenser (Thermo Labsystems). After 2 min preincubation, 2.5 μl of the SOS working solution were added to all wells except for those wells at the side of the test plate that were subsequently filled with 2.5 μl of the inhibitor control solution. After 60 min incubation the fluorescence was measured with a Pherastar (BMG, Germany) using the HTRF module (excitation 337 nm, emission 1: 620 nm, emission 2: 665 nm).
(§3) IC50 values were calculated by 4-Parameter fitting using a commercial software package (Genedata Screener, Switzerland).

[2] = target: human SOS1 (nucleotide exchange of K-Ras^G12C) (Homo sapiens, UniProt Q07889); experiment: Biochemical assay 2: K-Ras^G12C activation assay by hSOS1 at high GTP concentration (HTRF); conditions: high GTP; for IC50: read-out: Assay 2 (KRAS-Activation by SOS high GTP) activity expressed as IC50; for inhibition at 20 µM: read-out: Assay 2 (KRAS-Activation by SOS high GTP) activity expressed as % inhibition at 20 μM
Source text: Biochemical Assay 2: K-Ras^G12C Activation Assay by hSOS1 at High GTP Concentration
This assay quantifies human SOS1-mediated nucleotide exchange of K-Ras^G12C preloaded with a fluorescent […] and in presence of an excess of free GTP. Loaded hK-Ras^G12C generates a high HTRF-signal by energy transfer from antiGST-Terbium (FRET donor) bound to K-Ras to the loaded fluorescent GDP analog (FRET-acceptor). SOS1 activity exchanges the fluorescent GDP for non-fluorescent GTP and therefore leads to a reduction of the HTRF signal.
The fluorescent GDP-analog EDA-GDP-Dy647P1 (2′/3′-O-(2-Aminoethyl-carbamoyl)-guanosine-5′-diphosphate labelled with Dy647P1 (Dyomics GmbH, Germany)) was synthesized by Jena Biosciences GmbH (Germany) and supplied as a 1 mM aqueous solution.
Concentrations of protein batches used were optimized to be within the linear range of the HTRF signal.
Preparation of GST-tagged hK-Ras^Gl2C loaded with fluorescent nucleotide was performed as follows: incubation of 11.5 μM hK-Ras^Gl2C with 5-fold excess GDP-Dy647 nucleotide (54 μM) in 500 μl NLS-buffer (RAS activation Kit Jena Bioscience, Kat. #PR-950) for 10 min at 37° C. Addition of 20 μl 1 M MgCl2 (Sigma) to final 40 mM and store on ice. Purification into buffer (10 mM HEPES pH 7.4 (Applichem), 150 mM NaCl (Sigma), 5 mM MgCl2 (Sigma)) by use of a PD-Minitrap desalting column (GE Healthcare). Concentration of 1 ml purified hK-Ras-GDP-Dy647 is approx. 4-5 μM.
The assay buffer contained 10 mM HEPES pH 7.4 (Applichem), 150 mM NaCl (Sigma), 5 mM MgCl2 (Sigma), 1 mM DTT (Thermofisher), 0.05% BSA Fraction V, pH 7.0, (ICN Biomedicals), 0.0025% (v/v) Igepal (Sigma).
A Ras working solution was prepared in assay buffer containing typically 80 nM loaded GST-hK-RasG12C-EDA-GDP-Dy647P1 and 2 nM antiGST-Tb (Cisbio, France). A hSOS1 working solution was prepared in assay buffer containing typically 8 nM His-hSOS1 and 100 μM GTP (Jena Bioscience, Germany). An inhibitor control solution was prepared in assay buffer containing the same concentration of […].
as §1
as §2, with “hSOS1” for “SOS”, “20” for “60”
as §3

[3] = target: human SOS1 (loading of human K-Ras^G12C-GDP with fluorescent GTP-analog) (Homo sapiens, UniProt Q07889); experiment: Biochemical assay 3: K-Ras^G12C activation assay by hSOS1 (HTRF); conditions: no GTP; for IC50: read-out: Assay 3 (KRAS-Activation by SOS no GTP) activity expressed as IC50; for inhibition at 20 µM: read-out: Assay 3 (KRAS-Activation by SOS no GTP) activity expressed as % inhibition at 20 μM

SMILES	IC50 [1] [µM]	IC50 [2] [µM]	IC50 [3] [µM]	inhibition at 20 µM [2] [%]	inhibition at 20 µM [3] [%]	inhibition at 20 µM ([1]; read-out: Assay 1 (KRAS-SOS Interaction) activity expressed as % inhibition at 20 μM) [%]
COc1cc2nc(C)nc(N[C@@H](C)c3ccc(-c4ccccc4C(=O)N(C)C)s3)c2cc1OC (racemic) [Example 48, 2-(5-{1-[(6,7-dimethoxy-2-methylquinazolin-4-yl)amino]ethyl}thiophen-2-yl)-N,N-dimethylbenzamide]	2.12	3.27	4.52			
COc1cc2nc(C)nc(N[C@@H](C)c3ccc(-c4ccncc4C)s3)c2cc1OC (racemic) [Example 53, 6,7-dimethoxy-2-methyl-N-{1-[5-(3-methylpyridin-4-yl)thiophen-2-yl]ethyl}quinazolin-4-amine]	0.669	1.28	1.08			
COc1cc2nc(C)nc(N[C@@H](C)c3ccc(-c4ccc5cc[nH]c5c4)s3)c2cc1OC (racemic) [Example 54, N-{1-[5-(1H-indol-6-yl)thiophen-2-yl]ethyl}-6,7-dimethoxy-2-methylquinazolin-4-amine]	4.19	4.13	4.07			
COc1cc2nc(C)nc(N[C@@H](C)c3ccc(-c4cncc(S(C)(=O)=O)c4)s3)c2cc1OC (racemic) [Example 127]	17.8			44	42	
COc1cc2nc(C)nc(N[C@@H](C)c3ccc(-c4cnc5[nH]ccc5c4)s3)c2cc1OC (racemic) [Example 129, 6,7-dimethoxy-2-methyl-N-{1-[5-(1H-pyrrolo[2,3-b]pyridin-5-yl)thiophen-2-yl]ethyl}quinazolin-4-amine]	1.48	2.38	3.45			
COc1cc2nc(C)nc(N[C@@H](C)c3ccc(-c4cccc(S(N)(=O)=O)c4)s3)c2cc1OC (racemic) [Example 130, 3-(5-{1-[(6,7-dimethoxy-2-methylquinazolin-4-yl)amino]ethyl}thiophen-2-yl)benzenesulfonamide]	3.43	4.31	11.7			
COc1cc2nc(C)nc(N[C@@H](C)c3ccc(-c4cnc(N)nc4)s3)c2cc1OC (racemic) [Example 131, N-{1-[5-(2-aminopyrimidin-5-yl)thiophen-2-yl]ethyl}-6,7-dimethoxy-2-methylquinazolin-4-amine]	2.23	3.37	5.94			
COc1cc2nc(C)nc(N[C@@H](C)c3ccc(/C=C/C4CC4)s3)c2cc1OC (racemic) [Example 132, N-[1-{5-[(E)-2-cyclopropylethenyl]thiophen-2-yl}ethyl]-6,7-dimethoxy-2-methylquinazolin-4-amine]	6.58	8.05			46	
CCOCc1ccccc1-c1ccc([C@H](C)Nc2nc(C)nc3cc(OC)c(OC)cc23)s1 (racemic) [Example 133, N-[1-{5-[2-(ethoxymethyl)phenyl]thiophen-2-yl}ethyl]-6,7-dimethoxy-2-methylquinazolin-4-amine]	4.3	4.03	5.67			
COc1cc2nc(C)nc(N[C@@H](C)c3ccc(-c4ccc(C(=O)NCCN(C)C)cc4)s3)c2cc1OC (racemic) [Example 142, 4-(5-{1-[(6,7-dimethoxy-2-methylquinazolin-4-yl)amino]ethyl}thiophen-2-yl)-N-[2-(dimethylamino)ethyl]benzamide]	1.01	1.81	1.02			
C/C=C(\C)c1ccc([C@H](C)Nc2nc(C)nc3cc(OC)c(OC)cc23)s1 (racemic) [Example 143, N-[1-{5-[(2E)-but-2-en-2-yl]thiophen-2-yl}ethyl]-6,7-dimethoxy-2-methylquinazolin-4-amine]	7.64	8.76	17.8			
COc1cc2nc(C)nc(N[C@@H](C)c3ccc(/C=C/Cc4ccccc4)s3)c2cc1OC (racemic) [Example 145, 6,7-dimethoxy-2-methyl-N-[1-{5-[(1E)-3-phenylprop-1-en-1-yl]thiophen-2-yl}ethyl]quinazolin-4-amine]				18	11	40
COc1cc2nc(C)nc(N[C@@H](C)c3ccc(-c4cc(N)ccc4C)s3)c2cc1OC (racemic) [Example 146, N-{1-[5-(5-amino-2-methylphenyl)thiophen-2-yl]ethyl}-6,7-dimethoxy-2-methylquinazolin-4-amine]	0.911	1.5	1.48			
COc1cc2nc(C)nc(N[C@@H](C)c3ccc(-c4c(C)noc4C)s3)c2cc1OC (racemic) [Example 147, N-{1-[5-(3,5-dimethyl-1,2-oxazol-4-yl)thiophen-2-yl]ethyl}-6,7-dimethoxy-2-methylquinazolin-4-amine]	0.397	0.767	0.658			
COc1cc2nc(C)nc(N[C@@H](C)c3ccc(-c4ccccc4S(C)(=O)=O)s3)c2cc1OC (racemic) [Example 148, 6,7-dimethoxy-2-methyl-N-[1-{5-[2-(methylsulfonyl)phenyl]thiophen-2-yl}ethyl]quinazolin-4-amine]	1.41	3.4	3.06			
COc1cc2nc(C)nc(N[C@@H](C)c3ccc(-c4ccccc4OC(F)(F)F)s3)c2cc1OC (racemic) [Example 150, 6,7-dimethoxy-2-methyl-N-[1-{5-[2-(trifluoromethoxy)phenyl]thiophen-2-yl}ethyl]quinazolin-4-amine]	7.36	13.2	13.2			
COc1cc2nc(C)nc(N[C@@H](C)c3ccc(-c4ccc5[nH]ccc5c4)s3)c2cc1OC (racemic) [Example 152, N-{1-[5-(1H-indol-5-yl)thiophen-2-yl]ethyl}-6,7-dimethoxy-2-methylquinazolin-4-amine]	5.48	7.33	11.1			
